Measurements published in ChEMBL document CHEMBL1201862, “PubChem BioAssay data set” (2004).
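Step 1: Grow cells in 96-well plates. Step 2: Expose to compound for 48 hours at 5 concentrations. Step 3: Interpolate endpoints linearly; if unreached, use highest concentration. GI50 is the concentration that inhibits growth by half.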 Active and inactive are the calls of the source. Cut-off read from the data, not from the text of the source: active = GI50 up to about 1.1 µM and inactive = higher.

Key:
Test in all cases: inhibition of tumour cell growth, NCI panel, 48 h
[1] = test system: CAKI-1
[2] = test system: COLO 205
[3] = test system: EKVX
[4] = test system: HOP-62
[5] = test system: M14
[6] = test system: Malme-3M
[7] = test system: NCI-H522
[8] = test system: SF-268
[9] = test system: SF-295
[10] = test system: SK-MEL-28
[11] = test system: SK-MEL-2
[12] = test system: SNB-19
[13] = test system: TK-10
[14] = test system: U-251
[15] = test system: UO-31
[16] = test system: SNB-75
[17] = test system: SR

CNC(=O)OCc1c2ccncc2c(C)c2c1[nH]c1ccc(OC)cc12
GI50 [1]: 0.968 µM (active) | GI50 [2]: 0.536 µM (active) | GI50 [3]: 2.21 µM (inactive) | GI50 [4]: 0.156 µM (active) | GI50 [5]: 0.57 µM (active) | GI50 [6]: 0.353 µM (active) | GI50 [7]: 0.0805 µM (active) | GI50 [8]: 0.161 µM (active) | GI50 [9]: 0.352 µM (active) | GI50 [10]: 0.605 µM (active) | GI50 [11]: 0.181 µM (active) | GI50 [12]: 0.267 µM (active) | GI50 [13]: 0.953 µM (active) | GI50 [14]: 0.182 µM (active) | GI50 [15]: 0.148 µM (active)

Cc1nc2c(s/c(=N\N)n2-c2ccccc2)c(=O)n1C
GI50 [1]: > 100 µM (inactive) | GI50 [2]: > 100 µM (inactive) | GI50 [3]: > 100 µM (inactive) | GI50 [5]: > 100 µM (inactive) | GI50 [7]: > 100 µM (inactive) | GI50 [8]: > 100 µM (inactive) | GI50 [9]: > 100 µM (inactive) | GI50 [10]: > 100 µM (inactive) | GI50 [11]: > 100 µM (inactive) | GI50 [12]: > 100 µM (inactive) | GI50 [16]: > 100 µM (inactive) | GI50 [17]: > 100 µM (inactive) | GI50 [13]: > 100 µM (inactive) | GI50 [14]: > 100 µM (inactive) | GI50 [15]: > 100 µM (inactive)

O=C(O)CNS(=O)(=O)c1ccc(NC(=O)c2cccc([N+](=O)[O-])c2)cc1
GI50 [1]: > 100 µM (inactive) | GI50 [2]: > 100 µM (inactive) | GI50 [3]: > 100 µM (inactive) | GI50 [5]: > 100 µM (inactive) | GI50 [6]: > 100 µM (inactive) | GI50 [7]: > 100 µM (inactive) | GI50 [8]: > 100 µM (inactive) | GI50 [9]: > 100 µM (inactive) | GI50 [10]: > 100 µM (inactive) | GI50 [11]: > 100 µM (inactive) | GI50 [12]: > 100 µM (inactive) | GI50 [16]: > 100 µM (inactive) | GI50 [13]: > 100 µM (inactive) | GI50 [14]: > 100 µM (inactive) | GI50 [15]: > 100 µM (inactive)

C/C=C1\CN2CCc3c([nH]c4ccccc34)C2C=C1CCO (stereo not given)
GI50 [1]: > 340 µM (inactive) | GI50 [2]: > 340 µM (inactive) | GI50 [3]: > 340 µM (inactive) | GI50 [4]: > 340 µM (inactive) | GI50 [6]: > 340 µM (inactive) | GI50 [7]: > 340 µM (inactive) | GI50 [8]: > 340 µM (inactive) | GI50 [9]: > 340 µM (inactive) | GI50 [10]: > 340 µM (inactive) | GI50 [11]: > 340 µM (inactive) | GI50 [12]: > 340 µM (inactive) | GI50 [17]: > 340 µM (inactive) | GI50 [13]: > 340 µM (inactive) | GI50 [14]: > 340 µM (inactive)

O=C1C(=O)C(Br)(Br)C(Br)=C1Br
GI50 [1]: 18.4 µM (inactive) | GI50 [2]: 17.1 µM (inactive) | GI50 [3]: 25.4 µM (inactive) | GI50 [4]: > 100 µM (inactive) | GI50 [5]: 17.6 µM (inactive) | GI50 [6]: 20 µM (inactive) | GI50 [7]: 2.33 µM (inactive) | GI50 [8]: > 10 µM (inactive) | GI50 [9]: 57.4 µM (inactive) | GI50 [10]: 15.6 µM (inactive) | GI50 [11]: 17.1 µM (inactive) | GI50 [12]: 68.9 µM (inactive) | GI50 [16]: 14.4 µM (inactive) | GI50 [13]: 19.4 µM (inactive) | GI50 [14]: 25.2 µM (inactive) | GI50 [15]: 17.8 µM (inactive)

Cc1ccc(NC(=O)COC(=O)c2cccc3c(=O)c4ccccc4[nH]c23)cc1
GI50 [1]: 29.2 µM (inactive) | GI50 [2]: 21.9 µM (inactive) | GI50 [3]: 16.8 µM (inactive) | GI50 [4]: 60.5 µM (inactive) | GI50 [5]: 68.5 µM (inactive) | GI50 [6]: 47 µM (inactive) | GI50 [7]: 9.29 µM (inactive) | GI50 [8]: 35.6 µM (inactive) | GI50 [9]: 35.7 µM (inactive) | GI50 [10]: 47.4 µM (inactive) | GI50 [12]: 40.6 µM (inactive) | GI50 [16]: 31.3 µM (inactive) | GI50 [17]: 13 µM (inactive) | GI50 [13]: 22 µM (inactive) | GI50 [14]: 29.4 µM (inactive) | GI50 [15]: 5.35 µM (inactive)

O=C(OCCOCCOC(=O)c1c[nH]cc1-c1ccccc1)c1c[nH]cc1-c1ccccc1
GI50 [1]: 26.5 µM (inactive) | GI50 [2]: 19.8 µM (inactive) | GI50 [3]: 26.7 µM (inactive) | GI50 [4]: 17.3 µM (inactive) | GI50 [5]: 14.8 µM (inactive) | GI50 [6]: 18.9 µM (inactive) | GI50 [7]: 15.3 µM (inactive) | GI50 [8]: 15.5 µM (inactive) | GI50 [9]: 18.4 µM (inactive) | GI50 [12]: 24.3 µM (inactive) | GI50 [16]: 17.2 µM (inactive) | GI50 [17]: 21 µM (inactive) | GI50 [13]: 30.3 µM (inactive) | GI50 [14]: 17.9 µM (inactive) | GI50 [15]: 14.1 µM (inactive)

C=C1C(C)C2C(Cc3ccccc3)NC(=O)C23OC(=O)/C=C\CC(=O)CCC(C)C/C=C/C3C1O (stereo not given)
GI50 [1]: 0.421 µM (active) | GI50 [2]: 1.34 µM (inactive) | GI50 [3]: 2.48 µM (inactive) | GI50 [4]: 2 µM (inactive) | GI50 [6]: 1.82 µM (inactive) | GI50 [7]: 0.859 µM (active) | GI50 [8]: 1.66 µM (inactive) | GI50 [9]: 2.54 µM (inactive) | GI50 [10]: 1.39 µM (inactive) | GI50 [11]: 1.58 µM (inactive) | GI50 [12]: 2.6 µM (inactive) | GI50 [16]: 0.413 µM (active) | GI50 [13]: 0.0834 µM (active) | GI50 [14]: 2.54 µM (inactive) | GI50 [15]: 0.512 µM (active)

CC1(C(=O)NCCN(CCNC(=O)C2(C)CC3(C)CC(C)(C2)C(=O)NC3=O)CCNC(=O)C2(C)CC3(C)CC(C)(C2)C(=O)NC3=O)CC2(C)CC(C)(C1)C(=O)NC2=O (stereo not given)
GI50 [1]: > 100 µM (inactive) | GI50 [2]: > 100 µM (inactive) | GI50 [3]: > 100 µM (inactive) | GI50 [4]: > 100 µM (inactive) | GI50 [5]: > 100 µM (inactive) | GI50 [9]: > 100 µM (inactive) | GI50 [10]: > 100 µM (inactive) | GI50 [11]: > 100 µM (inactive) | GI50 [12]: > 100 µM (inactive) | GI50 [16]: > 100 µM (inactive) | GI50 [17]: > 100 µM (inactive) | GI50 [14]: > 100 µM (inactive) | GI50 [15]: > 100 µM (inactive)

N#CNc1nc(N)c(-c2ccc(Cl)cc2)c(C(=O)Nc2nccs2)n1
GI50 [1]: > 100 µM (inactive) | GI50 [3]: > 100 µM (inactive) | GI50 [4]: > 100 µM (inactive) | GI50 [5]: > 100 µM (inactive) | GI50 [6]: > 100 µM (inactive) | GI50 [7]: > 100 µM (inactive) | GI50 [8]: > 100 µM (inactive) | GI50 [9]: > 100 µM (inactive) | GI50 [10]: > 100 µM (inactive) | GI50 [11]: > 100 µM (inactive) | GI50 [12]: > 100 µM (inactive) | GI50 [16]: > 100 µM (inactive) | GI50 [13]: > 100 µM (inactive) | GI50 [14]: > 100 µM (inactive) | GI50 [15]: > 100 µM (inactive)

NS(=O)(=O)c1ccc(NC(=O)c2cccc3c(Nc4ccc(S(N)(=O)=O)cc4)c4ccccc4nc23)cc1
GI50 [1]: 38.2 µM (inactive) | GI50 [2]: 54.5 µM (inactive) | GI50 [3]: > 100 µM (inactive) | GI50 [4]: > 100 µM (inactive) | GI50 [5]: > 100 µM (inactive) | GI50 [6]: 43.9 µM (inactive) | GI50 [7]: 10.8 µM (inactive) | GI50 [8]: 15.5 µM (inactive) | GI50 [9]: 31.6 µM (inactive) | GI50 [10]: > 100 µM (inactive) | GI50 [11]: 20 µM (inactive) | GI50 [12]: 30.8 µM (inactive) | GI50 [16]: 14.3 µM (inactive) | GI50 [13]: > 100 µM (inactive) | GI50 [14]: 21.2 µM (inactive) | GI50 [15]: 93.5 µM (inactive)

Cc1nn(C(=O)CC(=O)Nc2ccc(Cl)cc2)c(C)c1/N=N/c1ccccc1C(=O)O
GI50 [1]: > 100 µM (inactive) | GI50 [2]: > 100 µM (inactive) | GI50 [3]: > 100 µM (inactive) | GI50 [4]: > 100 µM (inactive) | GI50 [5]: > 100 µM (inactive) | GI50 [6]: > 100 µM (inactive) | GI50 [7]: > 100 µM (inactive) | GI50 [8]: > 100 µM (inactive) | GI50 [9]: > 100 µM (inactive) | GI50 [10]: > 100 µM (inactive) | GI50 [11]: > 100 µM (inactive) | GI50 [12]: > 100 µM (inactive) | GI50 [16]: 39.5 µM (inactive) | GI50 [13]: > 100 µM (inactive) | GI50 [14]: > 100 µM (inactive) | GI50 [15]: > 100 µM (inactive)

COC(=O)c1ccc(Cl)cc1NC(=O)C1CCCCC1
GI50 [1]: > 100 µM (inactive) | GI50 [2]: > 100 µM (inactive) | GI50 [3]: > 100 µM (inactive) | GI50 [6]: > 100 µM (inactive) | GI50 [7]: > 100 µM (inactive) | GI50 [8]: > 100 µM (inactive) | GI50 [9]: > 100 µM (inactive) | GI50 [10]: > 100 µM (inactive) | GI50 [11]: > 100 µM (inactive) | GI50 [12]: > 100 µM (inactive) | GI50 [17]: > 100 µM (inactive) | GI50 [13]: 40 µM (inactive) | GI50 [14]: > 100 µM (inactive) | GI50 [15]: 3.53 µM (inactive)
